{"source": "PubChem BioAssay AID1241", "about": "(SRMLSC, 2008)", "data": [{"test": "NF-kB promoter reporter activators, neuronal cells, dose response, cell-based, SH-SY5Y, luciferase (AID 1241)", "settings": "fold induction", "units": {"EC50": "µM"}, "values": [{"smiles": "CC(C)(C)c1ccc(C(=O)Nc2cccc([N+](=O)[O-])c2)cc1", "EC50": 15.8}, {"smiles": "COc1cc(OC)cc(-c2nc3cc(C)ccc3o2)c1", "EC50": 29.3}, {"smiles": "O=C(Nc1ccc2nsnc2c1)c1ccc2c(c1)OCO2", "EC50": 1.85}, {"smiles": "C=CCN=c1scc(-c2ccccc2)n1/N=C/c1ccccn1", "EC50": 1.46}, {"smiles": "N/C(=N\\OC(=O)c1cc(Br)ccc1Cl)c1ccccn1", "EC50": 2.22}, {"smiles": "Cc1ccc(/C=C/c2nc3ccccc3[nH]2)o1", "EC50": 2.06}, {"smiles": "Cc1cc(C=C2C(=O)c3ccccc3C2=O)c(C)n1C", "EC50": 2.79}, {"smiles": "Cc1ccc(C(=O)Nc2ccc(Cl)cn2)cc1", "EC50": 17.3}, {"smiles": "Cc1ccc2nc(-c3ccc(NC(=O)CNC4CC4)cc3)sc2c1", "EC50": 1.69}, {"smiles": "O=C(/C=C/c1cccs1)N1CCc2ccccc21", "EC50": 0.356}, {"smiles": "O=C(Cc1cccs1)Nc1nc2c(s1)CCCC2", "EC50": 20.2}, {"smiles": "CC(C)CC(=O)Nc1ccc2nn(-c3ccccc3)nc2c1", "EC50": 5.7}, {"smiles": "Clc1ccc(-c2nc3n(n2)Cc2ccccc2-3)cc1", "EC50": 0.343}, {"smiles": "Cc1ccc(C(=O)/C=C/Nc2cccc(O)c2)cc1", "EC50": 0.559}, {"smiles": "CCNC(=S)NNC(=O)c1cc(-c2ccc(OCC)cc2)nc2ccccc12", "EC50": 1.08}, {"smiles": "O=c1c2ccccc2cnn1-c1ccc(Br)cc1", "EC50": 10.2}, {"smiles": "Oc1c(-c2cc(-c3ccco3)[nH]n2)ccc2ccccc12", "EC50": 5.56}, {"smiles": "COc1ccc(-c2csc(-c3ccccc3)n2)c(OC)c1", "EC50": 6.74}, {"smiles": "CCN(CC)c1ccc(N=Nc2nn(C)c(C)c2[N+](=O)[O-])cc1", "EC50": 8.19}, {"smiles": "O=C1C=C(Nc2ccccc2)C(=O)c2ccccc21", "EC50": 1.35}, {"smiles": "Cc1ccc(-n2cc3ccc([N+](=O)[O-])cc3n2)cc1", "EC50": 1.29}, {"smiles": "Cc1ccsc1/C=N/Nc1nc2ccccc2s1", "EC50": 0.803}, {"smiles": "CC(C)Oc1ccc(C(=O)NC2=NCCS2)cc1", "EC50": 1.87}, {"smiles": "O=C(COc1ccc2ccccc2c1)Nc1nccs1", "EC50": 0.776}, {"smiles": "CN=c1scc(C)n1/N=C/c1ccc2c(c1)OCO2", "EC50": 0.129}, {"smiles": "Cc1[nH]n(-c2cccc(Cl)c2)c(=O)c1C=NCc1ccco1", "EC50": 4.94}, {"smiles": "Nc1ccc(O)cc1C(=O)OCC(=O)c1ccc(C2CCCCC2)cc1", "EC50": 3.91}, {"smiles": "Cc1ccc(NC(=O)c2ccccc2O)cc1", "EC50": 3.23}, {"smiles": "NS(=O)(=O)c1cc(C(=O)OCC(=O)c2ccc3c(c2)OCCO3)ccc1Cl", "EC50": 3.47}, {"smiles": "N#CC1=C2SC=C(c3ccc(Br)cc3)N2CCCC1=O", "EC50": 19.4}, {"smiles": "c1cn2cc(-c3ccc4c(c3)OCO4)nc2s1", "EC50": 1.86}, {"smiles": "Oc1c(C2=NCCNC(C(F)(F)F)=C2)ccc2ccccc12", "EC50": 17.7}, {"smiles": "COc1cc2c(cc1NC(=O)C1CCCO1)oc1ccccc12", "note": "(configuration not stated)", "EC50": 5.78}, {"smiles": "c1ccc2c(c1)nnn1c3ccccc3nc21", "EC50": 0.346}, {"smiles": "COc1ccc(-c2csc(Nc3ccccc3)n2)cc1", "EC50": 2.49}, {"smiles": "CCOc1ccc(-c2nc(-c3cccnc3)no2)cc1", "EC50": 0.906}, {"smiles": "COC(=O)c1ccc(-c2nc3ccc(C)cc3o2)cc1", "EC50": 3.3}, {"smiles": "COC(=O)c1ccc(/C=C(\\C#N)c2ccccn2)cc1", "EC50": 25.1}, {"smiles": "CCCCCCCOc1ccc(OC(=O)c2ccncc2)cc1", "EC50": 0.107}, {"smiles": "COC(=O)c1sc2nc3c(cc2c1N)CCCC3", "EC50": 4.06}, {"smiles": "O=C(Nc1nc2c(s1)CCCC2)c1ccc(Br)o1", "EC50": 1.29}, {"smiles": "COc1ccc2nc(SCc3ccccc3)nc(C)c2c1", "EC50": 6.57}, {"smiles": "Cc1nn(-c2ccc([N+](=O)[O-])cc2)c(N)c1-c1ccccc1", "EC50": 6.72}, {"smiles": "CC(C)(C)c1ccc(C(=O)Nc2cnccn2)cc1", "EC50": 1.12}, {"smiles": "Cc1ccccc1-c1cc(-c2ccccc2O)on1", "EC50": 9.69}, {"smiles": "C(=N\\Nc1ncnc2ccccc12)/c1ccccc1", "EC50": 4.03}, {"smiles": "COc1ccc(-c2nc(-c3ccc(Br)cc3)no2)c(OC)c1", "EC50": 2.56}, {"smiles": "O=[N+]([O-])c1ccccc1OCc1nc(-c2cccs2)no1", "EC50": 1.73}, {"smiles": "COC(=O)c1sc(NC(=O)c2cc3c(s2)CCCC3)nc1C", "EC50": 13.6}, {"smiles": "Cc1ccc(-c2cc(-c3cccs3)[nH]n2)c(O)c1", "EC50": 13.1}, {"smiles": "O=C(Nc1ccc(OC(F)F)c(Cl)c1)c1ccccn1", "EC50": 6.28}, {"smiles": "S=C(Nc1ccccn1)c1ccccn1", "EC50": 2.03}, {"smiles": "Cc1cccnc1Nc1nc(-c2ccccn2)cs1", "EC50": 0.16}, {"smiles": "COc1ccc(-c2cc(-c3cc(C)ccc3O)[nH]n2)cc1", "EC50": 16}, {"smiles": "Cc1ccnc(NC(=O)/C=C/c2ccccc2Cl)c1", "EC50": 10.4}, {"smiles": "COc1ccc(C(=O)Nc2cccc(C)c2)cc1", "EC50": 6.19}, {"smiles": "O=C(N/N=C/C(Br)=C/c1ccccc1)c1n[nH]c2c1CCC2", "EC50": 0.659}, {"smiles": "COc1ccc(-c2coc3cc(OC)cc(O)c3c2=O)cc1", "EC50": 1.73}, {"smiles": "COc1ccc(C(=O)N=c2sc3ccccc3n2C)cc1", "EC50": 6.41}, {"smiles": "CN(C)c1ccc(NC(=O)CCCc2ccccc2)cc1", "EC50": 2.46}, {"smiles": "Fc1ccccc1-c1nc(-c2ccccc2)no1", "EC50": 4}, {"smiles": "Cc1ccc2sc(-c3ccc(NC(=O)/C=C\\C(=O)O)cc3)nc2c1", "EC50": 4.83}, {"smiles": "COc1cc(/C=N/O)ccc1OCc1ccccc1Cl", "EC50": 12.1}, {"smiles": "CCc1ccc(-c2cn3c(n2)SCC3)cc1", "EC50": 9.88}, {"smiles": "Cc1ccc(NC(=O)c2ccccc2)s1", "EC50": 6.43}, {"smiles": "CC(=O)Nc1ccc2oc(-c3cc(F)c(F)cc3Cl)nc2c1", "EC50": 0.817}, {"smiles": "Cc1cnc(NC(=O)Nc2ccc(Cl)cc2)s1", "EC50": 24}, {"smiles": "Cc1ccc2nc(-c3ccc(NS(=O)(=O)c4ccc(F)c(F)c4)cc3)sc2c1", "EC50": 3.62}, {"smiles": "COc1ccc(Nc2nc(-c3ccccc3)cs2)cc1", "EC50": 0.752}, {"smiles": "O=C(c1cnn(-c2ccc(Cl)cc2)c1)c1ccccc1O", "EC50": 1.72}, {"smiles": "CN(c1ccc(O)cc1)c1nc(-c2ccccc2)cs1", "EC50": 1.02}, {"smiles": "Cc1ccc(-c2nc(-c3ccccc3)no2)cc1", "EC50": 0.925}, {"smiles": "Cn1cc([N+](=O)[O-])c(C(=O)Nc2ccc(-c3nc4ccccc4[nH]3)cc2)n1", "EC50": 1.41}, {"smiles": "Clc1ccccc1Nc1nc(-c2cccnc2)cs1", "EC50": 1.86}, {"smiles": "Cc1ccc(N=Nc2c(N)nn(-c3ccccc3)c2N)cc1", "EC50": 10}, {"smiles": "Cc1ccc(N2Cc3ccccc3C2=S)cc1", "EC50": 5.15}, {"smiles": "CC(=O)Nc1ccc(-c2cc3ccccc3o2)cc1", "EC50": 5.56}, {"smiles": "O=C(Nc1ncc(Cc2ccccc2)s1)c1cccs1", "EC50": 1.08}, {"smiles": "Cc1ccc2nc3cc([N+](=O)[O-])cc([N+](=O)[O-])c3cc2c1", "EC50": 1.19}, {"smiles": "O=C(/C=C\\c1ccccc1)Nc1nccs1", "EC50": 1.07}, {"smiles": "O=C(CSc1ncnc2ccccc12)c1ccco1", "EC50": 4.15}, {"smiles": "O=C(OCC(=O)c1cccs1)c1ccccc1", "EC50": 12.6}, {"smiles": "C=CCNc1oc(/C=C/c2ccccc2)nc1C#N", "EC50": 27}, {"smiles": "c1ccc2c(c1)CCN(c1nc3cc4c(cc3s1)OCO4)C2", "EC50": 0.524}, {"smiles": "Clc1ccccc1OCc1nc(-c2ccccn2)no1", "EC50": 2.1}, {"smiles": "Cc1ccc(NC(=O)N2CCc3ccccc32)cc1C", "EC50": 0.361}, {"smiles": "COc1ccc(-c2cn3cc(C)ccc3n2)cc1Br", "EC50": 0.327}, {"smiles": "C(=N\\NC1=Nc2cccc3cccc1c23)/c1ccccn1", "EC50": 7.6}, {"smiles": "Cc1ccc(C(=O)C(C)OC(=O)c2ccccc2[N+](=O)[O-])cc1", "note": "(configuration not stated)", "EC50": 9.08}, {"smiles": "N/C(=N\\OC(=O)c1cccc(Cl)c1)c1ccccn1", "EC50": 1.95}, {"smiles": "Fc1ccccc1CSc1nc2ccccc2[nH]1", "EC50": 3.19}, {"smiles": "CCC(=O)Oc1ccc(-c2cnc3ccccc3n2)cc1", "EC50": 21.2}, {"smiles": "Cc1ccc(C)c(NC(=O)c2ccc3ccccc3n2)c1", "EC50": 1.89}, {"smiles": "COc1ccc(N2C(=S)NC3N2C(=S)NC3(C)c2ccccc2)cc1", "note": "(configuration not stated)", "EC50": 8.37}, {"smiles": "Cc1ccc(/C=N/Nc2ccc(Cl)c(C(=O)O)c2)s1", "EC50": 12.8}, {"smiles": "O=C(/C=C/Nc1ccccc1F)c1cccs1", "EC50": 0.413}, {"smiles": "CCC(=O)NC(c1ccccc1OC)c1ccc2cccnc2c1O", "note": "(configuration not stated)", "EC50": 8.39}]}]}
